According to ChEMBL document CHEMBL3044848, “Antiangiogenic and growth inhibitory effects of synthetic novel 1, 5-diphenyl-1,4 pentadiene-3-one-3-yl-ethanone pyridine curcumin analogues on Ehrlich ascites tumor in vivo” (Med Chem Res, 2008):
Active and inactive are the calls of the source. The calls are words filed in the database; no cut-off is given here.

Tests used:
[1] = Antitumor activity against Mus musculus (mouse) EAT cells xenografted in Mus musculus Swiss albino (mouse) assessed as change in body weight at 100 mg/kg, ip administered on days 7,9 and 11 post tumor-injection measured on day 12 (reference value: 10.44 +/- 0.147); assay type: functional; conditions: route intraperitoneal
Chorioallantoic membrane = assay: Antiangiogenesis activity against fertilized Gallus gallus (chicken) egg chorioallantoic membrane assessed as inhibition of neovascularization at 0.1 mM administered to 11 day old embryo measured on day 13 by microscopic analysis; assay type: functional, tissue-based
Mus musculus [2] = assay: Toxicity against Mus musculus Swiss albino (mouse) assessed as mortality at 100 mg/kg, ip; assay type: organism-based; set-up: dose 100 mg/kg, route intraperitoneal; conditions: in vivo
Mus musculus [3] = assay: Toxicity against Mus musculus Swiss albino (mouse) assessed as weight loss at 100 mg/kg, ip; assay type: organism-based; set-up: dose 100 mg/kg, route intraperitoneal; conditions: in vivo
[4] = Antitumor activity against Mus musculus (mouse) EAT cells xenografted in Mus musculus Swiss albino (mouse)assessed as increase in life span at 100 mg/kg, ip administered on days 7,9 and 11 post tumor-injection measured on day 12 relative to control; assay type: functional; conditions: route intraperitoneal
EAT [5] = assay: Antitumor activity against EAT cells xenografted in Mus musculus (mouse) assessed as condensed nuclei at 100 mg/kg, ip administered on days 7,9 and 11 post tumor-injection measured on day 12 by acridine orange:ethidium bromide staining; assay type: functional, organism-based; set-up: dose 100 mg/kg
EAT [6] = assay: Antitumor activity against EAT cells xenografted in Mus musculus Swiss albino (mouse) assessed as apoptotic bodies at 100 mg/kg, ip administered on days 7,9 and 11 post tumor-injection measured on day 12 by Geimsa staining; assay type: functional, organism-based; set-up: dose 100 mg/kg
EAT [7] = assay: Antitumor activity against Mus musculus (mouse) EAT cells xenografted in Mus musculus Swiss albino (mouse) assessed as decrease in cell number at 100 mg/kg, ip administered on days 7,9 and 11 post tumor-injection measured on day 12 relative to control; assay type: functional, organism-based; set-up: dose 100 mg/kg
EAT [8] = assay: Antiangiogeneic activity against Mus musculus (mouse) EAT cells xenografted in Mus musculus Swiss albino (mouse) assessed as decrease in peritoneal microvessel density per high power field at 100 mg/kg, ip administered on days 7,9 and 11 measured on day 12 by H and E staining-based microscopic analysis; assay type: functional, organism-based; set-up: dose 100 mg/kg
EAT [9] = assay: Antitumor activity against Mus musculus (mouse) EAT cells xenografted in Mus musculus Swiss albino (mouse) assessed as decrease in ascites volume at 100 mg/kg, ip administered on days 7,9 and 11 post tumor-injection measured on day 12 relative to control; assay type: functional, organism-based; set-up: dose 100 mg/kg

COc1cc(/C=C/C(=O)/C=C/c2ccc(OCC(=O)c3cccnc3)c(OC)c2)ccc1OCC(=O)c1cccnc1
Activity [1]: -5.07 g | inhibition (Chorioallantoic membrane): Active | Activity (Mus musculus [2]): Non-toxic | Activity (Mus musculus [3]): Non-toxic | Activity [4]: 88.8% | Activity (EAT [5]): Active | Activity (EAT [6]): Active | Activity (EAT [7]): Active | Activity (EAT [8]): Active | Activity (EAT [9]): Active

O=C(/C=C/c1ccc(OCC(=O)c2cccnc2)cc1)/C=C/c1ccc(OCC(=O)c2cccnc2)cc1
Activity [1]: -4.96 g | inhibition (Chorioallantoic membrane): Active | Activity (Mus musculus [2]): Non-toxic | Activity (Mus musculus [3]): Non-toxic | Activity [4]: 66.6% | Activity (EAT [5]): Active | Activity (EAT [6]): Active | Activity (EAT [7]): Active | Activity (EAT [8]): Active | Activity (EAT [9]): Active
